Reference: patent US20180118756A1, “COMPOSITIONS AND METHODS OF MODULATING SHORT-CHAIN DEHYDROGENASE ACTIVITY” (CASE WESTERN RESERVE UNIVERSITY, priority 2015, published 2018)

target: T1, recombinant 15-PGDH (Homo sapiens, UniProt P15428); test: IC50 for inhibiting enzymatic activity of recombinant 15-PGDH in an in vitro assay; format: biochemical; settings: Enzyme Inhibitor IC50 (nM) at 5 nM 15-PGDH, recombinant human 15-PGDH at 5 nM, in vitro
T1 sequence (P15428 1-266): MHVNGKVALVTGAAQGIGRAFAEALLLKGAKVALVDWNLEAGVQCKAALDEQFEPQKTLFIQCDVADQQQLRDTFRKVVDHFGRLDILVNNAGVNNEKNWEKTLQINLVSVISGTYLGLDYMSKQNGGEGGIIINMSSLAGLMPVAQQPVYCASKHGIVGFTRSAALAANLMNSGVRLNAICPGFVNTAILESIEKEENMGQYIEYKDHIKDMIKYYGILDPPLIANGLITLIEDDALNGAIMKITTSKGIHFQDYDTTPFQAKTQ

Row | IC50 [nM] | Compound
1 | 4 | CCCC[S+]([O-])c1sc2nc(-c3nccs3)cc(-c3ccc(C(=O)NCCO)cc3)c2c1N (stereo not shown) [SW 212831, 4-(3-amino-2-(butylsulfinyl)-6-(thiazol-2-yl)thieno[2,3-b]pyridin-4-yl)-N-(2-hydroxyethyl)benzamide]
2 | 3.3 | CCCC[S+]([O-])c1sc2nc(-c3nccs3)cc(-c3ccc(COC(=O)NCCN(C)C)cc3)c2c1N (stereo not shown) [SW 212834, 4-(3-amino-2-(butylsulfinyl)-6-(thiazol-2-yl)thieno[2,3-b]pyridin-4-yl)benzyl (2-(dimethylamino)ethyl)carbamate]
3 | 4.2 | C=CCNC(=O)COc1ccc(-c2cc(-c3nccs3)nc3sc([S+]([O-])CCCC)c(N)c23)cc1 (stereo not shown) [SW 212835, N-allyl-2-(4-(3-amino-2-(butylsulfinyl)-6-(thiazol-2-yl)thieno[2,3-b]pyridin-4-yl)phenoxy)acetamide]
4 | 4 | CCCC[S+]([O-])c1sc2nc(-c3nccs3)cc(-c3ccc(CC(=O)OC)cc3)c2c1N (stereo not shown) [SW 213150, Methyl 2-(4-(3-amino-2-(butylsulfinyl)-6-(thiazol-2-yl)thieno[2,3-b]pyridin-4-yl)phenyl)acetate]
5 | 2 | CCCC[S+]([O-])c1sc2nc(-c3nccs3)cc(-c3ccc(COCCO)cc3)c2c1N (stereo not shown) [SW 213153, 2-((4-(3-amino-2-(butylsulfinyl)-6-(thiazol-2-yl)thieno[2,3-b]pyridin-4-yl)benzyl)oxy)ethan-1-ol]
6 | 19 | CCCC[S+]([O-])c1sc2nc(-c3nccs3)cc(-c3cnc(OC)n3C)c2c1N (stereo not shown) [SW 213155, 2-(butylsulfinyl)-4-(2-methoxy-1-methyl-1H-imidazol-5-yl)-6-(thiazol-2-yl)thieno[2,3-b]pyridin-3-amine]
7 | 2.8 | CCCC[S+]([O-])c1sc2nc(-c3nccs3)cc(-c3ccc(CNC(=O)NCCO)cc3)c2c1N (stereo not shown) [SW 213209, 1-(4-(3-amino-2-(butylsulfinyl)-6-(thiazol-2-yl)thieno[2,3-b]pyridin-4-yl)benzyl)-3-(2-hydroxyethyl)urea]
8 | 5 | CCCC[S+]([O-])c1sc2nc(-c3nccs3)cc(-c3ccc(CNC(=O)CN(C)C)cc3)c2c1N (stereo not shown) [SW 213210, N-(4-(3-amino-2-(butylsulfinyl)-6-(thiazol-2-yl)thieno[2,3-b]pyridin-4-yl)benzyl)-2-(dimethylamino)acetamide]
9 | 2.9 | CCCC[S+]([O-])c1sc2nc(-c3nccs3)cc(-c3ccc(CNC(=O)COC)cc3)c2c1N (stereo not shown) [SW 213211, N-(4-(3-amino-2-(butylsulfinyl)-6-(thiazol-2-yl)thieno[2,3-b]pyridin-4-yl)benzyl)-2-methoxyacetamide]
10 | 3.1 | CCCC[S+]([O-])c1sc2nc(-c3nccs3)cc(-c3ccnn3C)c2c1N (stereo not shown) [SW 217780, 2-(butylsulfinyl)-4-(1-methyl-1H-pyrazol-5-yl)-6-(thiazol-2-yl)thieno[2,3-b]pyridin-3-amine]
11 | 2.2 | CCCC[S+]([O-])c1sc2nc(-c3nccs3)cc(-c3cocn3)c2c1N (stereo not shown) [SW 217936, 2-(butylsulfinyl)-4-(oxazol-4-yl)-6-(thiazol-2-yl)thieno[2,3-b]pyridin-3-amine]
12 | 2.1 | CCCC[S+]([O-])c1sc2nc(-c3nccs3)cc(-c3scnc3C)c2c1N (stereo not shown) [SW 217938, 2-(butylsulfinyl)-4-(4-methylthiazol-5-yl)-6-(thiazol-2-yl)thieno[2,3-b]pyridin-3-amine]
13 | 4.5 | CCCC[S+]([O-])c1sc2nc(-c3nccs3)cc(-c3ocnc3C)c2c1N (stereo not shown) [SW 217939, 2-(butylsulfinyl)-4-(4-methyloxazol-5-yl)-6-(thiazol-2-yl)thieno[2,3-b]pyridin-3-amine]
14 | 12 | Nc1c([S+]([O-])c2ccccc2)sc2nc(-c3nccs3)cc(-c3ccc(OCCO)cc3)c12 (stereo not shown) [SW 217997, 2-(4-(3-amino-2-(phenylsulfinyl)-6-(thiazol-2-yl)thieno[2,3-b]pyridin-4-yl)phenoxy)ethan-1-ol]
15 | 3.2 | CCCC[S+]([O-])c1sc2nc(-c3nccs3)cc(-c3ccc(OCCF)cc3)c2c1N (stereo not shown) [SW 217998, 2-(butylsulfinyl)-4-(4-(2-fluoroethoxy)phenyl)-6-(thiazol-2-yl)thieno[2,3-b]pyridin-3-amine]
16 | 3.4 | CCCC[S+]([O-])c1sc2nc(-c3nccs3)cc(-c3c(C)ncn3C)c2c1N (stereo not shown) [SW 218475, 2-(butylsulfinyl)-4-(1,4-dimethyl-1H-imidazol-5-yl)-6-(thiazol-2-yl)thieno[2,3-b]pyridin-3-amine]
17 | 3.8 | CCCC[S+]([O-])c1sc2nc(-c3nccs3)cc(-c3ncn(C)c3C)c2c1N (stereo not shown) [SW 218477, 2-(butylsulfinyl)-4-(1,5-dimethyl-1H-imidazol-4-yl)-6-(thiazol-2-yl)thieno[2,3-b]pyridin-3-amine]
18 | 2.2 | CCCC[S+]([O-])c1sc2nc(-c3nccs3)cc(-c3nccn3CC)c2c1N (stereo not shown) [SW 218521, 2-(butylsulfinyl)-4-(1-ethyl-1H-imidazol-2-yl)-6-(thiazol-2-yl)thieno[2,3-b]pyridin-3-amine]

More lines, now with the values behind:

Row | Compound | IC50 [nM]
19 | CCCC[S+]([O-])c1sc2nc(-c3ncc(C)s3)cc(-c3cnc(C)n3C)c2c1N (stereo not shown) [SW 213208, 2-(butylsulfinyl)-4-(1,2-dimethyl-1H-imidazol-5-yl)-6-(5-methylthiazol-2-yl)thieno[2,3-b]pyridin-3-amine] | 7.5
20 | CCCC[S+]([O-])c1sc2nc(-c3nccs3)cc(-c3cnnn3C)c2c1N (stereo not shown) [SW 217782, 2-(butylsulfinyl)-4-(1-methyl-1H-1,2,3-triazol-5-yl)-6-(thiazol-2-yl)thieno[2,3-b]pyridin-3-amine] | 5.4
21 | CCCC[S+]([O-])c1sc2nc(-c3nccs3)cc(-c3nc(C)cs3)c2c1N (stereo not shown) [SW 217937, 2-(butylsulfinyl)-4-(4-methylthiazol-2-yl)-6-(thiazol-2-yl)thieno[2,3-b]pyridin-3-amine] | 1.8
22 | COCCC[S+]([O-])c1sc2nc(-c3nccs3)nc(-c3ccccc3)c2c1N (stereo not shown) [SW 217995, 6-((3-methoxypropyl)sulfinyl)-4-phenyl-2-(thiazol-2-yl)thieno[2,3-d]pyrimidin-5-amine] | 3
23 | COCC[S+]([O-])c1sc2nc(-c3nccs3)nc(-c3ccccc3)c2c1N (stereo not shown) [SW 217996, 6-((2-methoxyethyl)sulfinyl)-4-phenyl-2-(thiazol-2-yl)thieno[2,3-d]pyrimidin-5-amine] | 3.4
24 | CCCC[S+]([O-])c1sc2nc(-c3cccs3)cc(-c3ccccc3)c2c1NC(C)=O (stereo not shown) [SW 218030, N-(2-(butylsulfinyl)-4-phenyl-6-(thiophen-2-yl)thieno[2,3-b]pyridin-3-yl)acetamide] | 6890
25 | CCCC[S+]([O-])c1sc2nc(-c3cccs3)cc(-c3ccccc3)c2c1NC(=O)OC (stereo not shown) [SW 218031, methyl (2-(butylsulfinyl)-4-phenyl-6-(thiophen-2-yl)thieno[2,3-b]pyridin-3-yl)carbamate] | 1380
26 | Nc1c(C(=O)N2CCCCC2)sc2nc(-c3cccs3)cc(-c3ccccc3)c12 [SW 218331, (3-amino-4-phenyl-6-(thiophen-2-yl)thieno[2,3-b]pyridin-2-yl)(piperidin-1-yl)methanone] | 41
27 | CCCNS(=O)(=O)c1sc2nc(-c3cccs3)cc(-c3ccccc3)c2c1N [SW 218332, 3-amino-4-phenyl-N-propyl-6-(thiophen-2-yl)thieno[2,3-b]pyridine-2-sulfonamide] | 113
28 | CCOC[S+]([O-])c1sc2nc(-c3nccs3)cc(-c3cnc(C)n3C)c2c1N (stereo not shown) [SW 218398, 4-(1,2-dimethyl-1H-imidazol-5-yl)-2-((ethoxymethyl)sulfinyl)-6-(thiazol-2-yl)thieno[2,3-b]pyridin-3-amine] | 9.1
29 | CCCC[S+]([O-])c1sc2nc(-c3cccs3)cc(-c3ccccc3)c2c1O (stereo not shown) [SW 218399, 2-(butylsulfinyl)-4-phenyl-6-(thiophen-2-yl)thieno[2,3-b]pyridin-3-ol] | 135
30 | Nc1c(S(=O)(=O)N2CCCCC2)sc2nc(-c3cccs3)cc(-c3ccccc3)c12 [SW 218400] | > 100
31 | CCCC[S+]([O-])c1sc2nc(-c3nccs3)cc(-c3cnc(CC)n3C)c2c1N (stereo not shown) [SW 218476, 2-(butylsulfinyl)-4-(2-ethyl-1-methyl-1H-imidazol-5-yl)-6-(thiazol-2-yl)thieno[2,3-b]pyridin-3-amine] | 2
32 | CCCC[S+]([O-])c1sc2nc(-c3nccs3)cc(-c3cnc(C)n3C3CC3)c2c1N (stereo not shown) [SW 218478, 2-(butylsulfinyl)-4-(1-cyclopropyl-2-methyl-1H-imidazol-5-yl)-6-(thiazol-2-yl)thieno[2,3-b]pyridin-3-amine] | 2.4
33 | Nc1c([S+]([O-])C2CCCCC2)sc2nc(-c3cccs3)cc(-c3ccccc3)c12 (stereo not shown) [SW 218520, 2-(cyclohexylsulfinyl)-4-phenyl-6-(thiophen-2-yl)thieno[2,3-b]pyridin-3-amine] | 3.3
34 | CCCC[S+]([O-])c1sc2nc(-c3nccs3)cc(-c3nc(C)c(C)n3C)c2c1N (stereo not shown) [SW 218522, 2-(butylsulfinyl)-6-(thiazol-2-yl)-4-(1,4,5-trimethyl-1H-imidazol-2-yl)thieno[2,3-b]pyridin-3-amine] | 2.5

same assay, conditions: read-out: Enzyme Inhibitor IC50 (nM) at 5 nM 15-PGDH; recombinant human 15-PGDH at 5 nM, in vitro

Row | IC50 [nM] | Compound
35 | 0.9 | CCCC[S@@+]([O-])c1sc2nc(-c3nccs3)cc(-c3cncn3C)c2c1N (single isomer, unassigned) [(+)-SW 217985]
36 | 765 | CCCC[S@+]([O-])c1sc2nc(-c3nccs3)cc(-c3cncn3C)c2c1N (single isomer, unassigned) [(−)-SW 217986]

same assay, conditions: recombinant human 15-PGDH at 5 nM

Row | extent of 15-PGDH inhibition (remark) | Compound
37 | incomplete inhibition | Nc1c(S(=O)(=O)N2CCCCC2)sc2nc(-c3cccs3)cc(-c3ccccc3)c12 [SW 218400]
